In patent US20040224958A1, “Pyridopyrimidinone derivatives for treatment of neurodegenerative disease” (priority 2000, published 2004) one finds IC50 data, which are given here for 23 compounds.

The target of test [1] is cdk2/cyclinA (Homo sapiens, UniProt P24941). In words: Cyclin-Dependent Kinase Assay cdk2/cyclinA. To be noted: cdk2/A IC50.
The target of test [2] is cdc2/cyclinB (Homo sapiens, UniProt P06493). Kind of test: Cyclin-Dependent Kinase Assay cdc2/cyclinB.
For test [3], the target named is cdk4/D (Homo sapiens, UniProt P11802). In words: Cyclin-Dependent Kinase 4 (cdk4) Assay. Format: biochemical. To be noted: read-out: cdk4/D IC50.
Test [4] deals with Cdk5/p25 (Homo sapiens, UniProt Q00535). Kind of test: Cyclin-Dependent Kinase 5 High Throughput Screening (cdk5-HTS) Assay. Format: biochemical. To be noted: high throughput screen. Put shortly: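 IC50 determined from 33P incorporation into GST-RbCOOH captured on glutathione plates and read by scintillation counting. Reaction: 1.0 μg/mL Cdk5/p25, 20 μM [γ33P]ATP, pH 7.4 Tris buffer with MgCl2 and DTT, 30 min at room temperature, stopped with EDTA.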

Test [5] has as its target cdk2/cyclinE (Homo sapiens, UniProt P24941). Kind of test: Cyclin-Dependent Kinase Assay cdk2/cyclinE. To be noted: cdk2/E IC50.

cdc2/cyclinB, sequence (P06493 whole entry): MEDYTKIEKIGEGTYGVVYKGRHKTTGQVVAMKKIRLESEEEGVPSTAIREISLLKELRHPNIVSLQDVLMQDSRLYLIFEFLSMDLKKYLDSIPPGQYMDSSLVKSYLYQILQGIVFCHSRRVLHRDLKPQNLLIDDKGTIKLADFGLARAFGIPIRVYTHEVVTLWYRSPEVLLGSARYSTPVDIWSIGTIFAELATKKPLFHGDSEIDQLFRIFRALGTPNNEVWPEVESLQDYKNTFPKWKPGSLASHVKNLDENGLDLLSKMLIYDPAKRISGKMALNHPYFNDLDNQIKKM
cdc2/cyclinB, sequence (P14635 whole entry, further chain): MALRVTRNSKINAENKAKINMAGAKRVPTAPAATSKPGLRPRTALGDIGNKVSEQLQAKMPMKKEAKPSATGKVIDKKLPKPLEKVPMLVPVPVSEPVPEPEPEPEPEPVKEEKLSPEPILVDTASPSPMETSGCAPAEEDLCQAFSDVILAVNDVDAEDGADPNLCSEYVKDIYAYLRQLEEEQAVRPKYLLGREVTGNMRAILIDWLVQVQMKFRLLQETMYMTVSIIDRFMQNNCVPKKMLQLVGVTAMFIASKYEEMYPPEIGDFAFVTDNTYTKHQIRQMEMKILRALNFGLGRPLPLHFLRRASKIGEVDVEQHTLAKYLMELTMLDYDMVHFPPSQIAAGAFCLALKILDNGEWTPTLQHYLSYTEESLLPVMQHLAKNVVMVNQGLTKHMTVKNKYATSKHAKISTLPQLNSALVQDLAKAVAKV
cdk4/D, sequence (P11802 whole entry): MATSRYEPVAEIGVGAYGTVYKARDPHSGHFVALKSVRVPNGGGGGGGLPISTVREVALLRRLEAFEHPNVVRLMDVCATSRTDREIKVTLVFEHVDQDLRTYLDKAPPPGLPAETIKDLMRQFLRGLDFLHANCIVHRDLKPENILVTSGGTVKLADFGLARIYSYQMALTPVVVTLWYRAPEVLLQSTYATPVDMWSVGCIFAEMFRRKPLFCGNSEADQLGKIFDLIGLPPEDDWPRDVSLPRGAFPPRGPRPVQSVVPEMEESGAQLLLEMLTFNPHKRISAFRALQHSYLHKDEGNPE
cdk4/D, sequence (P24385 whole entry, further chain): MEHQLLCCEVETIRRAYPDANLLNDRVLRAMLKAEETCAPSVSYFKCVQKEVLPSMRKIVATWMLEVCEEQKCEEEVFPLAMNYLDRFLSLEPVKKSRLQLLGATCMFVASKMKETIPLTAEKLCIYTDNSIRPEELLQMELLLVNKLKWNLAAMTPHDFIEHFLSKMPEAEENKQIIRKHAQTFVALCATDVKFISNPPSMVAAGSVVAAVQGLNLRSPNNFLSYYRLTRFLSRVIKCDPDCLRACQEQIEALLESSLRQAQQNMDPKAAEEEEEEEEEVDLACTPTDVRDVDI

Consider `NS(=O)(=O)c1ccc(Nc2ncc3ccc(=O)n(CC4CC4)c3n2)cc1` [Example 571, 4-(8-Cyclopropylmethyl-7-oxo-7,8-dihydro-pyrido[2,3-d]pyrimidin-2-ylamino)-benzenesulfonamide], for which the IC50 in test [1] stood at 15 nM; in test [2], 29 nM; in test [3], 65 nM; in test [4], 8.8 nM; in test [5], 5.1 nM.

Consider `O=c1ccc2cnc(Nc3cc([N+](=O)[O-])ccc3F)nc2n1CC1CC1` [Example 572, 8-Cyclopropylmethyl-2-(2-fluoro-5-nitro-phenylamino)-8H-pyrido[2,3-d]pyrimidin-7-one], for which the IC50 in test [1] amounted to 530 nM; in test [2] it was 430 nM; in test [3], 120 nM; in test [4] it was 190 nM; in test [5], 84 nM.

With `CC(=O)Nc1cc(Nc2ncc3ccc(=O)n(CC4CC4)c3n2)ccc1C#N` [Example 574, N-[2-Cyano-5-(8-cyclopropylmethyl-7-oxo-7,8-dihydro-pyrido[2,3-d]pyrimidin-2-ylamino)-phenyl]-acetamide], the IC50 in test [1] is 520 nM; in test [2], 290 nM; in test [3], 80 nM; in test [4], 140 nM; in test [5] it was 270 nM.

For `O=c1ccc2cnc(Nc3cc(F)cc(F)c3)nc2n1CC1CC1` [Example 575, 8-Cyclopropylmethyl-2-(3,5-difluoro-phenylamino)-8H-pyrido[2,3-d]pyrimidin-7-one], the IC50 in test [1] is 330 nM; in test [2], 330 nM; in test [3], 540 nM; in test [4] it was 230 nM; in test [5], 280 nM.

With `O=c1ccc2cnc(Nc3ccc(F)c([N+](=O)[O-])c3)nc2n1CC1CC1` [Example 576, 8-Cyclopropylmethyl-2-(4-fluoro-3-nitro-phenylamino)-8H-pyrido[2,3-d]pyrimidin-7-one], the IC50 in test [1] stood at 490 nM; in test [2], 650 nM; in test [3], 420 nM; in test [4], 410 nM; in test [5] it was 460 nM.

With `O=c1[nH]c2ccc(Nc3ncc4ccc(=O)n(CC5CC5)c4n3)cc2[nH]1` [Example 577, 8-Cyclopropylmethyl-2-(2-oxo-2,3-dihydro-1H-benzimidazol-5-ylamino)-8H-pyrido[2,3-d]pyrimidin-7-one], the IC50 in test [1] was determined as 120 nM; in test [2] it was 120 nM; in test [3], 230 nM; in test [4], 92 nM; in test [5], 110 nM.

Turning to `O=c1ccc2cnc(Nc3cccc(O)c3)nc2n1CC1CC1` [Example 578, 8-Cyclopropylmethyl-2-(3-hydroxy-phenylamino)-8H-pyrido[2,3-d]pyrimidin-7-one], the IC50 in test [1] is 190 nM; in test [2], 310 nM; in test [3] it was 140 nM; in test [4], 110 nM; in test [5], 170 nM.

With `CC1Nc2ccc(Nc3ncc4ccc(=O)n(CC5CC5)c4n3)cc2C1C` (stereo not shown) [Example 580, 8-Cyclopropylmethyl-2-(2,3-dimethyl-2,3-dihydro-1H-indol-5ylamino)-8H-pyrido[2,3-d]pyrimidin-7-one], the IC50 in test [1] amounted to 270 nM; in test [2], 79 nM; in test [3], 550 nM; in test [4] it was 130 nM; in test [5], 130 nM.

As for `O=c1ccc2cnc(Nc3ccc4[nH]c5ccccc5c4c3)nc2n1CC1CC1` [Example 582, 2-(9H-Carbazol-3-ylamino)-8-cyclopropylmethyl-8H-pyrido[2,3-d]pyrimidin-7-one], the IC50 was 440 nM in test [1]; 280 nM in test [2]; 660 nM in test [3]; 190 nM in test [4]; 250 nM in test [5].

On to `O=C1CSc2ccc(Nc3ncc4ccc(=O)n(CC5CC5)c4n3)cc2N1` [Example 584, 8-Cyclopropylmethyl-2-(3-oxo-3,4-dihydro-2H-1,4-benzothiazin-6-ylamino)-8H-pyrido[2,3-d]pyrimidin-7-one], for which the IC50 in test [1] was determined as 140 nM; in test [2], 170 nM; in test [3] it was 98 nM; in test [4], 39 nM; in test [5], 100 nM.

For the compound `CC(=O)Nc1cc(Nc2ncc3ccc(=O)n(CC4CC4)c3n2)ccc1C` [Example 585], the IC50 in test [1] came to 180 nM; in test [2], 340 nM; in test [3] it was 210 nM; in test [4] it was 450 nM; in test [5], 320 nM.

Consider `Cc1cc(Nc2ncc3ccc(=O)n(CC4CC4)c3n2)cc(C)c1O` [Example 586, 8-Cyclopropylmethyl-2-(4-hydroxy-3,5-dimethyl-phenylamino)-8H-pyrido[2,3-d]pyrimidin-7-one], for which the IC50 in test [1] came to 170 nM; in test [2] it was 120 nM; in test [3] it was 490 nM; in test [4] it was 170 nM; in test [5], 200 nM.

`O=c1ccc2cnc(Nc3ccc4c(c3)CCC4)nc2n1CC1CC1` [Example 587, 8-Cyclopropylmethyl-2-(indan-5-ylamino)-8H-pyrido[2,3-d]pyrimidin-7-one]: the IC50 in test [1] was 440 nM; in test [2], 360 nM; in test [3] it was 200 nM; in test [4] it was 160 nM; in test [5], 81 nM.

`O=c1ccc2cnc(Nc3cc(F)c(F)c(F)c3)nc2n1CC1CC1` [Example 588, 8-Cyclopropylmethyl-2-(3,4,5-trifluoro-phenylamino)-8H-pyrido[2,3-d]pyrimidin-7-one]: the IC50 in test [1] worked out at 670 nM; in test [2], 710 nM; in test [3] it was 2600 nM; in test [4], 260 nM; in test [5], 100 nM.

In the case of `Cc1ccc(Nc2ncc3ccc(=O)n(CC4CC4)c3n2)cc1NS(C)(=O)=O` [Example 592, N-[5-(8-Cyclopropylmethyl-7-oxo-7,8-dihydro-pyrido[2,3-d]pyrimidin-2-ylamino)-2-methyl-phenyl]-methanesulfonamide], the IC50 came to 310 nM in test [1]; 430 nM in test [2]; 200 nM in test [3]; 230 nM in test [4]; 71 nM in test [5].

Regarding `O=c1ccc2cnc(Nc3ccc4[nH]ccc4c3)nc2n1CC(F)(F)F` [Example 593, 2-(1H-Indol-5-ylamino)-8-(2,2,2-trifluoro-ethyl)-8H-pyrido[2,3-d]pyrimidin-7-one], the IC50 is 2700 nM in test [1]; 960 nM in test [2]; 905 nM in test [3]; 695 nM in test [4]; 1370 nM in test [5].

On to `O=c1ccc2cnc(Nc3ccc4nn[nH]c4c3)nc2n1CC(F)(F)F` [Example 595, 2-(1H-Benzotriazol-5-ylamino)-8-(2,2,2-trifluoro-ethyl)-8H1-pyrido[2,3-d]pyrimidin-7-one], for which the IC50 is 1450 nM in test [1]; 2000 nM in test [2]; 2000 nM in test [3]; 155 nM in test [4]; 510 nM in test [5].

As for `O=c1ccc2cnc(Nc3ccc(O)c(Cl)c3)nc2n1CC(F)(F)F` [Example 597, 2-(3-Chloro-4-hydroxy-phenylamino)-8-(2,2,2-trifluoro-ethyl)-8H-pyrido[2,3-d]pyrimidin-7-one], the IC50 in test [1] was 1010 nM; in test [2], 435 nM; in test [3] it was 2000 nM; in test [4], 250 nM; in test [5] it was 317 nM.

Regarding `COc1ccc(Nc2ncc3ccc(=O)n(CC(F)(F)F)c3n2)cc1OC` [Example 600, 2-(3,4-Dimethoxy-phenylamino)-8-(2,2,2-trifluoro-ethyl)-8H-pyrido[2,3-d]pyrimidin-7-one], the IC50 in test [1] came to 1600 nM; in test [2], 905 nM; in test [3] it was 1780 nM; in test [4], 124 nM; in test [5], 970 nM.

As to `O=c1ccc2cnc(Nc3ccccc3)nc2n1CC(F)(F)F` [Example 601, 2-Phenylamino-8-(2,2,2-trifluoro-ethyl)-8H-pyrido[2,3-d]pyrimidin-7-one], the IC50 in test [1] worked out at 2850 nM; in test [2], 1650 nM; in test [3], 1450 nM; in test [4], 400 nM; in test [5] it was 1200 nM.

With `COc1ccc(Nc2ncc3ccc(=O)n(C4CCCCC4)c3n2)cc1OC` [Example 613, 8-Cyclohexyl-2-(3,4-dimethoxy-phenylamino)-8H-pyrido[2,3-d]pyrimidin-7-one], the IC50 was found to be 152 nM in test [1]; 101 nM in test [2]; 415 nM in test [3]; 63 nM in test [4]; 36.3 nM in test [5].

Turning to `Cn1c(=O)ccc2cnc(Nc3ccc4[nH]ccc4c3)nc21` [Example 614, 2-(1H-Indol-5-ylamino)-8-methyl-8H-pyrido[2,3-d]pyrimidin-7-one], the IC50 in test [1] amounted to 2000 nM; in test [2], 1430 nM; in test [3], 1350 nM; in test [4], 615 nM; in test [5], 917 nM.

On to `Cn1c(=O)ccc2cnc(Nc3ccc(NC(=O)OC(C)(C)C)cc3)nc21` [Example 615, [4-(8-Methyl-7-oxo-7,8-dihydro-pyrido[2,3-d]pyrimidin-2-ylamino)-phenyl]-carbamic acid tert-butyl ester], for which the IC50 in test [1] was 3600 nM; in test [2] it was 1760 nM; in test [3], 3000 nM; in test [4] it was 1140 nM; in test [5] it was 1530 nM.
